In assay [1] the target is T1, human B1R receptor (bradykinin 1 receptor) (Homo sapiens, UniProt P46663).
T1 construct: host or cells: CHO K1 cells (hB1R cells)
T1 sequence (P46663 1-353): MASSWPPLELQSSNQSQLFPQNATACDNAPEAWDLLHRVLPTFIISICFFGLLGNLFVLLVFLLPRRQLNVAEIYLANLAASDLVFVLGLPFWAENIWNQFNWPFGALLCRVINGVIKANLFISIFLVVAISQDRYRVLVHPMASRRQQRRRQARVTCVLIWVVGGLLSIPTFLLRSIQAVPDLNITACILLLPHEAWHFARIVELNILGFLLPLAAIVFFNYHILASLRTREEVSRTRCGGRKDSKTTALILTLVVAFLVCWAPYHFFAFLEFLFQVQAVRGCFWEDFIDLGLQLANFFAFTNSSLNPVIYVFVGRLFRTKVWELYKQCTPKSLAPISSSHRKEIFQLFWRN
Description: FLIPR Ca2+ assay (Fluo-4) on CHO K1 cells stably transfected with the human B1R gene; % activation and % inhibition at 10 μM. As to conditions: CHO K1 hB1R cells, Ca2+ inflow after 0.5 nM Lys-Des-Arg9-bradykinin; for inhibition at 10 µM: CHO-K1, test substance 10 μM, read-out: B1R antagonism, human [10 μM] % inhibition; for B1R antagonism, human [10 μM] % inhibition: test substance 10 μM. Format: cell-based. A digest of the protocol: (§1)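 Fluo-4 Ca2+ flux on FLIPR in stable hB1R or rB1R CHO K1 lines, two additions. Agonism: 10 µM compound versus 0.5 nM Lys-Des-Arg9-BK (human) or 100 nM Des-Arg9-BK (rat); antagonism: same agonists applied 10 min later, suppression expressed against maximum achievable inhibition.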

Assay [2] addresses T2, B1R receptor of the rat (bradykinin 1 receptor) (Rattus norvegicus, UniProt P97583).
T2 construct: host or cells: CHO K1 cells (rB1R cells)
T2 sequence (P97583 1-337): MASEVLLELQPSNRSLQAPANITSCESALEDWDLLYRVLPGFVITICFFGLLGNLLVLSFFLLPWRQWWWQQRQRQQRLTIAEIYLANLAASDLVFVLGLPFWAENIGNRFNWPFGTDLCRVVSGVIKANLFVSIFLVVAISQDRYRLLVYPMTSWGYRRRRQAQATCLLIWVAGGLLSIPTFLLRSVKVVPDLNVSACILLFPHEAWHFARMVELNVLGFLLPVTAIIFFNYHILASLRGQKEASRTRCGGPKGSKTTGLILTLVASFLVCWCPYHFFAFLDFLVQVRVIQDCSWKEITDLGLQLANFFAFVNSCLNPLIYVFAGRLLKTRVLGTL
Description: FLIPR Ca2+ assay (Fluo-4) on CHO K1 cells stably transfected with the B1R gene of the rat; % activation and % inhibition at 10 μM. Format: cell-based. As to conditions: CHO K1 rB1R cells, Ca2+ inflow after 100 nM Des-Arg9-bradykinin; for inhibition at 10 µM: CHO-K1, test substance 10 μM, read-out: B1R antagonism, rat [10 μM] % inhibition; for B1R antagonism, rat [10 μM] % inhibition: test substance 10 μM. Summed up:
as §1

Structures can show the parent of a compound that is named as a salt.

In general, inhibition refers to the drop in the measured response relative to a control, in per cent.

For `O=C(COCC1Cc2ccccc2CN1S(=O)(=O)c1ccc(Cl)cc1Cl)N1CCC(O)(c2ccccc2)CC1` (stereo not shown) [Example 80, 2-((2-(2,4-dichlorophenylsulfonyl)-1,2,3,4-tetrahydroisoquinolin-3-yl)methoxy)-1-(4-hydroxy-4-phenylpiperidin-1-yl)ethanone], the figures for the inhibition at 10 µM in assay [1] and in assay [2] were 62.3% and 82.5%, respectively.
In the same order, the values of `Cc1cc(S(=O)(=O)N2CCCCC2COCC(=O)N2CCC(O)(c3ccccc3)CC2)c(C)cc1Cl` (stereo not shown) [Example 158, 2-((1-(4-chloro-2,5-dimethylphenylsulfonyl)piperidin-2-yl)methoxy)-1-(4-hydroxy-4-phenylpiperidin-1-yl)ethanone] are 44.9% and 105%.
In the same order, the values of `Cc1cc(C)c(S(=O)(=O)N2Cc3ccccc3CC2COCC(=O)N2CCC(O)(Cc3ccccc3)CC2)c(C)c1` (stereo not shown) [Example 201, 1-(4-benzyl-4-hydroxypiperidin-1-yl)-2-((2-(mesitylsulfonyl)-1,2,3,4-tetrahydroisoquinolin-3-yl)methoxy)ethanone] are 14.9% and 80%.
In the same order, the values of `O=C(COCC1Cc2ccccc2CN1S(=O)(=O)c1ccccc1)N1CCC(O)(c2cccnc2)CC1` (stereo not shown) [Example 90, 2-(2-phenylsulfonyl-1,2,3,4-tetrahydro-isoquinolin-3-ylmethoxy)-1-(4′-hydroxy-3′,4′,5′,6′-tetrahydro-2′H-[3,4′]bipyridinyl-1′-yl)-ethanone] are 13.8% and 31.1%.
As for `CN(c1ccccc1OCC(=O)N1CCC(O)(Cc2ccccc2)CC1)S(=O)(=O)c1ccc(Cl)c(Cl)c1` [Example 33, N-{2-[2-(4-benzyl-4-hydroxy-piperidin-1-yl)-2-oxo-ethoxy]-phenyl}-3,4-dichloro-N-methyl-phenylsulfonamide], the figures for the inhibition at 10 µM in assay [1] and in assay [2] were 6.18% and 19.4%, respectively.
Turning to `Cc1cc(S(=O)(=O)N2CCCCC2CCC(=O)N2CCC(O)(c3ccccn3)CC2)c(C)cc1Cl` (stereo not shown) [Example 119, 3-(1-(4-chloro-2,5-dimethylphenylsulfonyl)piperidin-2-yl)-1-(4-hydroxy-4-(pyridin-2-yl)piperidin-1-yl)propan-1-one], the inhibition at 10 µM in assay [1] is 82.6%; in assay [2] it was 22.4%.
As for `COc1cc(C)c(S(=O)(=O)N2Cc3ccccc3CC2COCC(=O)N2CCC(O)(c3cccc(C(F)(F)F)c3)CC2)c(C)c1C` (stereo not shown) [Example 233, 1-(4-hydroxy-4-(3-(trifluoromethyl)phenyl)piperidin-1-yl)-2-((2-(4-methoxy-2,3,6-trimethylphenylsulfonyl)-1,2,3,4-tetrahydroisoquinolin-3-yl)methoxy)ethanone], the inhibition at 10 µM in assay [1] worked out at 38.9%; in assay [2], 70.2%.
As to “2-((2-(3,4-dichlorophenylsulfonyl)-1,2,3,4-tetrahydroisoquinolin-3-yl)methoxy)-1-(4-hydroxy-4-phenylpiperidin-1-yl)ethanone [Example 76]”, the “B1R antagonism, human [10 μM] % inhibition” value in assay [1] was determined as 9.96%. Besides, the “B1R antagonism, rat [10 μM] % inhibition” value in assay [2] amounted to 43.59%.
Consider `COc1cc(C)c(S(=O)(=O)N2CCC(COCC(=O)N3CCC(O)(c4ccc(Cl)cc4)CC3)C2)c(C)c1` (stereo not shown) [Example 202, 1-(4-(4-chlorophenyl)-4-hydroxypiperidin-1-yl)-2-((1-(4-methoxy-2,6-dimethylphenylsulfonyl)pyrrolidin-3-yl)methoxy)ethanone], for which the values for the inhibition at 10 µM in assay [1] and in assay [2] were 99.2% and 98.5%, respectively.
In the same order, the values of `COc1cc(C)cc(C)c1S(=O)(=O)N1CCC(OCC(=O)N2CCC(O)(c3ccc(Br)cc3)CC2)C1` (stereo not shown) [Example 264, 1-(4-(4-bromophenyl)-4-hydroxypiperidin-1-yl)-2-(1-(2-methoxy-4,6-dimethylphenylsulfonyl)pyrrolidin-3-yloxy)ethanone] are 64.5% and 4.5%.
Take `O=C(COCC1CCCCN1S(=O)(=O)c1cc(Cl)sc1Cl)N1CCC(O)(c2ccccc2)CC1` (stereo not shown) [Example 271, 2-((1-(2,5-dichlorothiophen-3-ylsulfonyl)piperidin-2-yl)methoxy)-1-(4-hydroxy-4-phenylpiperidin-1-yl)ethanone]: the inhibition at 10 µM in assay [1] was 41.9%; in assay [2], 78.3%.
The like results for `Cc1cc(S(=O)(=O)N(C)CCOCC(=O)N2CCC(O)(c3ccc(Cl)cc3)CC2)c(C)cc1Cl` [Example 150, 4-chloro-N-(2-(2-(4-(4-chlorophenyl)-4-hydroxypiperidin-1-yl)-2-oxoethoxy)ethyl)-N,2,5-trimethylphenylsulfonamide] were, in that order, 95.3% and 93.7%.
The like results for `Cc1ccc(F)cc1S(=O)(=O)N(C)CCOCC(=O)N1CCC(O)(Cc2ccccc2)CC1` [Example 62, N-{2-[2-(4-benzyl-4-hydroxy-piperidin-1-yl)-2-oxo-ethoxy]-ethyl}-5-fluoro-2,N-dimethyl-phenylsulfonamide] were, in that order, 7.47% and 22.9%.
In the same order, the values of `O=C(COCC1CCc2ccccc2N1S(=O)(=O)c1ccc(Cl)c(Cl)c1)N1CCC(O)(c2ccccn2)CC1` (stereo not shown) [Example 146, 2-((1-(3,4-dichlorophenylsulfonyl)-1,2,3,4-tetrahydroquinolin-2-yl)methoxy)-1-(4-hydroxy-4-(pyridin-2-yl)piperidin-1-yl)ethanone] are 70.7% and 92.8%.
For `O=C(COCC1CCCCN1S(=O)(=O)c1ccccc1C(F)(F)F)N1CCC(O)(c2ccc(Cl)cc2)CC1` (stereo not shown) [Example 173, 1-(4-(4-chlorophenyl)-4-hydroxypiperidin-1-yl)-2-((1-(2-(trifluoromethyl)phenylsulfonyl)piperidin-2-yl)methoxy)ethanone], the inhibition at 10 µM in assay [1] came to 103%; in assay [2] it was 104%.
Consider `COc1cc(C)c(S(=O)(=O)N(CCOCC(=O)N2CCC(O)(c3ccc(Cl)c(C(F)(F)F)c3)CC2)CC2CC2)c(C)c1C` [Example 237, N-(2-(2-(4-(4-chloro-3-(trifluoromethyl)phenyl)-4-hydroxypiperidin-1-yl)-2-oxoethoxy)ethyl)-N-(cyclopropylmethyl)-4-methoxy-2,3,6-trimethylphenyl-sulfonamide], for which the inhibition at 10 µM in assay [1] turned out to be 103%; in assay [2], 100%.
`O=C(COCC1Cc2ccccc2N1S(=O)(=O)c1ccc(Cl)c(Cl)c1)N1CCC(O)(c2cccnc2)CC1` (stereo not shown) [Example 100, 2-[1-(3,4-dichloro-phenylsulfonyl)-2,3-dihydro-1H-indol-2-ylmethoxy]-1-(4′-hydroxy-3′,4′,5′,6′-tetrahydro-2′H-[3,4′]bipyridinyl-1′-yl)-ethanone]: the figures for the inhibition at 10 µM in assay [1] and in assay [2] were -6.26% and -0.67%, respectively.
Consider `COc1cc(C)c(S(=O)(=O)N2CCCC2COCC(=O)N2CCC(O)(c3cccnc3)CC2)c(C)c1` (stereo not shown) [Example 89, 1-(4′-hydroxy-3′,4′,5′,6′-tetrahydro-2′H-[3,4′]bipyridinyl-1′-yl)-2-[1-(4-methoxy-2,6-dimethyl-phenylsulfonyl)-pyrrolidin-2-ylmethoxy]-ethanone; hydrochloride], for which the “B1R antagonism, human [10 μM] % inhibition” value in assay [1] (hydrochloride) is on record as 104.46%. The “B1R antagonism, rat [10 μM] % inhibition” value in assay [2] (hydrochloride) came to 100.44%.
As to `CN(CCOCC(=O)N1CCC(O)(c2ccc(Br)cc2)CC1)S(=O)(=O)c1cc(Cl)sc1Cl` [Example 261, N-(2-(2-(4-(4-bromophenyl)-4-hydroxypiperidin-1-yl)-2-oxoethoxy)ethyl)-2,5-dichloro-N-methylthiophene-3-sulfonamide], the values for the inhibition at 10 µM in assay [1] and in assay [2] were 87.8% and 98.5%, respectively.
As to `COc1cc(C)c(S(=O)(=O)N2CCC(COCC(=O)N3CCC(O)(c4ccc(Br)cc4)CC3)C2)c(C)c1` (stereo not shown) [Example 230, 1-(4-(4-bromophenyl)-4-hydroxypiperidin-1-yl)-2-((1-(4-methoxy-2,6-dimethylphenylsulfonyl)pyrrolidin-3-yl)methoxy)ethanone], the inhibition at 10 µM in assay [1] and in assay [2] was 100% in each case.
